What all share (type): cell-based
In assay [1] the target is T1, TYK2 (Homo sapiens, UniProt P29597, E957D).
T1 construct: host or cells: Ba/F3 (murine B lymphocytes)
Nature of the assay: JAK family kinase selectivity assay, Ba/F3-FL-TYK2-E957D cell proliferation. Conditions: 72 h. An excerpt: (§1) There are four kinases in the JAK family, respectively TYK2, JAK1, JAK2 and JAK3. JAK family kinase genes were introduced into the wild-type murine B lymphocytes (BaF3), and four BaF3 engineered cell lines were constructed respectively (Ba/F3-FL-TYK2-E957D, Ba/F3-TEL-JAK1, Ba/F3-TEL-JAK2, Ba/F3-TEL-JAK3). The growth and proliferation of these engineered cell lines were not dependent on IL-3, but on exogenously transferred JAK family kinases.
(§2) In this experiment, the inhibitory effects of the compounds on the proliferation of four cell types, Ba/F3-FL-TYK2-E957D, Ba/F3-TEL-JAK1, Ba/F3-TEL-JAK2, and Ba/F3-TEL-JAK3 were tested, and apoptosis was detected, and the IC50 values were calculated. The inhibitory activities of the compounds against TYK2, JAK1, JAK2, and JAK3 kinases were evaluated based on the IC50 value, thus assessing the JAK family kinase selectivity of the compounds. […]
(§3) Cells (provided by Sundia Pharmaceutical Technology (Shanghai) Co., Ltd.) were resuspended and counted using an automated cell counter. […]
(§4) The cell plate was equilibrated to room temperature. […] Detected with SpectraMax Paradigm.
(§5) • (1) IC50 was calculated using GraphPad Prism 5. • (2) % Inh=(Max signal-Compound signal)/(Max signal-Min signal)×100. • (3) Max signal was the positive control well with only the same volume of DMSO as the compound. • (4) Min signal was the negative control well with only the culture medium.

The target in assay [2] is T2, JAK1 (Homo sapiens, UniProt P23458, cells depend on it, form not given).
T2 construct: fused on or other part: N-terminal part of TEL (ETV6) as oligomerising partner; P41212 (Transcription factor ETV6)
Nature of the assay: JAK family kinase selectivity assay, Ba/F3-TEL-JAK1 cell proliferation. As to conditions: Ba/F3-TEL-JAK1, 72 h; read-out: Ba/F3 Cell IC50 JAK1.
Description: as §1, §2, §3, §4, §5

The target of assay [3] is T3, hERG potassium channel (Homo sapiens, UniProt Q12809).
T3 construct: expressed in transfected cells; host or cells: CHO
Nature of the assay: hERG potassium channel inhibition assay (CHO-hERG cells, Qpatch automated patch clamp). As to conditions: highest tested concentration 40 μM. The procedure: 4.1 Purpose of the Experiment The blocking effect of the compounds in the present invention on hERG potassium currents on stable cell lines transfected with hERG potassium channels was tested by applying a fully automated membrane clamp.
CHO-hERG cells were cultured in 175 cm^2 culture flasks, and when the cell density grew to 60-80%, the culture medium was removed and washed with 7 ml of PBS (Phosphate Buffered Saline), and then 3 ml of Detachin was added for digestion.
When digestion was completed, 7 ml of culture medium was added to neutralize the cells, then centrifuged, the supernatant was removed, and 5 ml of culture medium was added to resuspend the cells to ensure that the cell density is 2-5×10^6/ml.
The single-cell high-impedance sealing and whole-cell pattern formation processes were all automated with the Qpatch instrument. After obtaining the recording pattern, the cells were clamped at −80 mV, and a −50 mV preconditioning voltage was given for 50 ms prior to giving a +40 mV depolarizing stimulus for 5 s. The cell was then repolarized to −50 mV to be maintained for 5 s and then returned to −80 mV. This voltage stimulus was applied every 15 s. […]
The experimental data was analyzed by XLFit software.
For orientation: hERG is a cardiac potassium channel; its block is linked to QT prolongation.

Where only a bound is given, the exact number is not on record here.

T2 sequence (P23458 875-1154 limits assumed, change not shown): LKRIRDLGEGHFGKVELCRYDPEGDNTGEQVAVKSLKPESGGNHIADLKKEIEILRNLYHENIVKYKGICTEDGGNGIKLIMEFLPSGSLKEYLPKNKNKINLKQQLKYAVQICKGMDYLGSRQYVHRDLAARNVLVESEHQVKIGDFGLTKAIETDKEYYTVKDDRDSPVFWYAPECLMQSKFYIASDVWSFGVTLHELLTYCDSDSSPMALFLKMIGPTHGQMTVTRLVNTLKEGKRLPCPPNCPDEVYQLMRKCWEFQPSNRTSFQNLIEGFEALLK
T3 sequence (Q12809 whole entry): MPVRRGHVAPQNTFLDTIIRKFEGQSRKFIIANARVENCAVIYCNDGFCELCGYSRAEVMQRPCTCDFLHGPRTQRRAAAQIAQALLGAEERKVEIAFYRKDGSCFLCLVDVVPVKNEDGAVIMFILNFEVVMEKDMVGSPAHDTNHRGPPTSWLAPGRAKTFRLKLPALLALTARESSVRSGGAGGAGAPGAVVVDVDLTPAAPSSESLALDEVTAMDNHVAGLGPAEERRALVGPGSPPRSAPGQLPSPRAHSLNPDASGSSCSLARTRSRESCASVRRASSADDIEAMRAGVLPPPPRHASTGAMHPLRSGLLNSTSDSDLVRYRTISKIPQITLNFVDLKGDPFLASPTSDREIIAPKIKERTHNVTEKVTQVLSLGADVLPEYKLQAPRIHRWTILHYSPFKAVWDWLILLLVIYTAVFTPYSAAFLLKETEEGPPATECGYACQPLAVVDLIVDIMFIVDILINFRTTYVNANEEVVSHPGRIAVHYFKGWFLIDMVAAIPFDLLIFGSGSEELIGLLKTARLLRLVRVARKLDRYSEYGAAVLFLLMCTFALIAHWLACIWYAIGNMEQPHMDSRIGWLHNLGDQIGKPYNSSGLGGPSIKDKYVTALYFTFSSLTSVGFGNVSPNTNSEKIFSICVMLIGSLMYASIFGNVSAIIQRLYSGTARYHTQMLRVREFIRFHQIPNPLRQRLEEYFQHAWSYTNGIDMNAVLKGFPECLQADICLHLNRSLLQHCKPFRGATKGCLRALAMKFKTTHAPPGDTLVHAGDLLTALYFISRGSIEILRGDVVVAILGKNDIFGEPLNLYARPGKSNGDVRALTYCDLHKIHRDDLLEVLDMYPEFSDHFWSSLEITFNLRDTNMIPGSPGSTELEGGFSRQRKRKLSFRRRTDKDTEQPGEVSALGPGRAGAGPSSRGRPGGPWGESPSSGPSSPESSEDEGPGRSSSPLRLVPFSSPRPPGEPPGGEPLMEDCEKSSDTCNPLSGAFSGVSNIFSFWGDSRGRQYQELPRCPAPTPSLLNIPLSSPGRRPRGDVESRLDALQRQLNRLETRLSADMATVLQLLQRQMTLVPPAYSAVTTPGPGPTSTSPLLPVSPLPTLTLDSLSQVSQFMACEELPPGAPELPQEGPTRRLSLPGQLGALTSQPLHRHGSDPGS
T1 sequence (P29597 whole entry E957D): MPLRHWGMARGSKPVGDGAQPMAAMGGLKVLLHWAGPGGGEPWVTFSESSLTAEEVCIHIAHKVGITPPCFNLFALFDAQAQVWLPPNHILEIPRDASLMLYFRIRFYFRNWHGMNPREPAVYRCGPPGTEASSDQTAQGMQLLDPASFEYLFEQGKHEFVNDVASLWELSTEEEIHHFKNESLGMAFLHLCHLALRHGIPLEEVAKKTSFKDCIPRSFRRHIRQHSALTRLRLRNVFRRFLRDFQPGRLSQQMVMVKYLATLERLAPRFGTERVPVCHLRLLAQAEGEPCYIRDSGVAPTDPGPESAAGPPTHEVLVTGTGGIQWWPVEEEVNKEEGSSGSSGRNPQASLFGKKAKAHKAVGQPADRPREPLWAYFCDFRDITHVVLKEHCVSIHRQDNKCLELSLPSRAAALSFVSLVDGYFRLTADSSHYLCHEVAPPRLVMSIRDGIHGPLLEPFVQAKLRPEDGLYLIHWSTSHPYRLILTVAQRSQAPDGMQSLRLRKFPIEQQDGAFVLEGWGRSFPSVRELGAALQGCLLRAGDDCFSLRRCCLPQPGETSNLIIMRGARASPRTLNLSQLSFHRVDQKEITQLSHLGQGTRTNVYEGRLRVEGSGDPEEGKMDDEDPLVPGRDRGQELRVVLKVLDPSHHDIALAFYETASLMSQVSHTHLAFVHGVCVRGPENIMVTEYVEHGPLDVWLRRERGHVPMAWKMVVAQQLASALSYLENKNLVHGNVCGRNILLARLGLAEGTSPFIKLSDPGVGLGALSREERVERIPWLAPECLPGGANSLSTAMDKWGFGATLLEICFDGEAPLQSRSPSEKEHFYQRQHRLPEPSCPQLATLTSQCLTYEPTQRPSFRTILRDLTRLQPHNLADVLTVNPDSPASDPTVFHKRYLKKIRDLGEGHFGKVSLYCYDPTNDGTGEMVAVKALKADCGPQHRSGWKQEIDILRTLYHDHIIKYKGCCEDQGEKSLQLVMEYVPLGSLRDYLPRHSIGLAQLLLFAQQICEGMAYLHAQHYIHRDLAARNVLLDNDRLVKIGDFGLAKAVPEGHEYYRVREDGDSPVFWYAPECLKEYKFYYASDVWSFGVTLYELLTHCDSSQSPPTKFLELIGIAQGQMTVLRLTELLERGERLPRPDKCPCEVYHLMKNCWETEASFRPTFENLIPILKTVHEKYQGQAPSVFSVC

The IC50 is the concentration that inhibits the measured activity by half. Consider `[2H]C([2H])([2H])NC(=O)c1nnc(NC(=O)C2CC2)cc1Nc1nc(N)c(Cl)cc1[S@@](C)(=O)=NC` [Example 28], for which the IC50 in assay [1] is 0.6 nM; in assay [3], over 30000 nM. For the same compound, in assay [2], the GI50 was over 1000 nM.
In the case of `[2H]C([2H])([2H])NC(=O)c1nnc(NC(=O)C2CC2)cc1Nc1nc(N)c(Cl)cc1[S@](C)(=N)=O` [Example 29, (R)-4-((6-amino-5-chloro-3-(S-methylsulfoximino)pyridin-2-yl)amino)-6-(cyclopropylcarboxamido)-N-(methyl-d3)pyridazine-3-carboxamide], the IC50 is 1.1 nM in assay [1] and over 30000 nM in assay [3]. Moreover, in assay [2], the GI50 is over 1000 nM.

For the origin of these results see US20250179022A1, “COMPOUND USED AS TYK2 INHIBITOR, PREPARATION METHOD THEREFOR, AND PHARMACEUTICAL USE THEREOF” (SHANGHAI ZHIGEN PHARMACEUTICAL & TECHNOLOGY CO. LTD., priority 2022, published 2025).
